In brackets after ≈: the same amount, converted by molar mass.
Assays:
ACHN [1] = assay: Growth inhibition of human ACHN cells assessed as cell growth at 0.01 uM incubated for 48 hrs by sulforhodamine B assay relative to control; assay type: functional; settings: read-out: Activity
IGROV-1 [2] = assay: Growth inhibition of human IGROV1 cells assessed as cell growth at 0.1 uM incubated for 48 hrs by sulforhodamine B assay relative to control; assay type: functional; settings: IGROV-1, 48 h, read-out: Activity
IGROV-1 [3] = assay: Growth inhibition of human IGROV1 cells assessed as cell growth at 100 uM incubated for 48 hrs by sulforhodamine B assay relative to control; assay type: functional; settings: IGROV-1, 48 h, read-out: Activity
OVCAR-8 [4] = assay: Growth inhibition of human OVCAR8 cells assessed as cell growth at 100 uM incubated for 48 hrs by sulforhodamine B assay relative to control; assay type: functional; settings: OVCAR-8, 48 h, read-out: Activity
DU-145 = assay: Growth inhibition of human DU145 cells incubated for 48 hrs by sulforhodamine B assay; assay type: functional; settings: DU-145, 48 h; for TGI: read-out: pTGI (converted)
NCI/ADR-RES = assay: Growth inhibition of human NCI-ADR-RES cells assessed as cell growth at 0.01 uM incubated for 48 hrs by sulforhodamine B assay relative to control; assay type: functional; settings: read-out: Activity
OVCAR-8 [5] = assay: Growth inhibition of human OVCAR8 cells assessed as cell growth at 1 uM incubated for 48 hrs by sulforhodamine B assay relative to control; assay type: functional; settings: OVCAR-8, 48 h, read-out: Activity
OVCAR-8 [6] = assay: Growth inhibition of human OVCAR8 cells incubated for 48 hrs by sulforhodamine B assay; assay type: functional; settings: OVCAR-8, 48 h
T47D = assay: Growth inhibition of human T47D cells assessed as cell growth at 0.01 uM incubated for 48 hrs by sulforhodamine B assay relative to control; assay type: functional; settings: read-out: Activity
NCI-H322M = assay: Growth inhibition of human NCI-H322M cells assessed as cell growth at 1 uM incubated for 48 hrs by sulforhodamine B assay relative to control; assay type: functional; settings: read-out: Activity
OVCAR-8 [7] = assay: Growth inhibition of human OVCAR8 cells assessed as cell growth at 0.1 uM incubated for 48 hrs by sulforhodamine B assay relative to control; assay type: functional; settings: OVCAR-8, 48 h, read-out: Activity
ACHN [8] = assay: Growth inhibition of human ACHN cells incubated for 48 hrs by sulforhodamine B assay; assay type: functional
A549 = assay: Growth inhibition of human A549/ATCC cells assessed as cell growth at 100 uM incubated for 48 hrs by sulforhodamine B assay relative to control; assay type: functional; settings: A549, 48 h, read-out: Activity
BT-549 = assay: Growth inhibition of human BT549 cells assessed as cell growth at 100 uM incubated for 48 hrs by sulforhodamine B assay relative to control; assay type: functional; settings: BT-549, 48 h, read-out: Activity
Albumin [9] = target: T1, Albumin (Bos taurus, UniProt P02769); assay: Binding affinity to Bovine serum albumin assessed as fluorescence quenching at 0.1 to 1 uM at […] by fluorescence spectroscopic assay; assay type: ADME; settings: cattle, isolated protein
T1 sequence (P02769 whole entry): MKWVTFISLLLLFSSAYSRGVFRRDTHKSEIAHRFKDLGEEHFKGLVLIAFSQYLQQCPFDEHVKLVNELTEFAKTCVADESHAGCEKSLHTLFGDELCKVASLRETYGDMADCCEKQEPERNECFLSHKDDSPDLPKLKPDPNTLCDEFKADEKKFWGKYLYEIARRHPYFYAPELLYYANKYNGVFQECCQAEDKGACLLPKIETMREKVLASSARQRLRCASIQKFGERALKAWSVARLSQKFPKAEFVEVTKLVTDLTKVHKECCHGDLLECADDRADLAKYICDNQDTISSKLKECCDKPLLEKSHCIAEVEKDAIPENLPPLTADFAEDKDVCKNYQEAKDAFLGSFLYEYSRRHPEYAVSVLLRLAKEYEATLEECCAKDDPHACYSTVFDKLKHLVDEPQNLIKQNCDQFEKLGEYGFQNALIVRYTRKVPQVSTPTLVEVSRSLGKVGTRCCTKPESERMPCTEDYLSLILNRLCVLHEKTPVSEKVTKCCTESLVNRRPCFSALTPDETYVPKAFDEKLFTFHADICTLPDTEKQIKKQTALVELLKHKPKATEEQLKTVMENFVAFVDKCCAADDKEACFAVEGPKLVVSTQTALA

TK-10 [10] = assay: Growth inhibition of human TK10 cells assessed as cell growth at 1 uM incubated for 48 hrs by sulforhodamine B assay relative to control; assay type: functional; settings: TK-10, 48 h, read-out: Activity
HL-60(TB) = assay: Growth inhibition of human HL-60(TB) cells assessed as cell growth at 1 uM incubated for 48 hrs by sulforhodamine B assay relative to control; assay type: functional; settings: HL-60, 48 h, read-out: Activity
UACC-62 = assay: Growth inhibition of human UACC62 cells assessed as cell growth at 0.01 uM incubated for 48 hrs by sulforhodamine B assay relative to control; assay type: functional; settings: UACC-62, 48 h, read-out: Activity
TK-10 [11] = assay: Growth inhibition of human TK10 cells assessed as cell growth at 0.1 uM incubated for 48 hrs by sulforhodamine B assay relative to control; assay type: functional; settings: TK-10, 48 h, read-out: Activity
PC-3 = assay: Growth inhibition of human PC3 cells assessed as cell growth at 100 uM incubated for 48 hrs by sulforhodamine B assay relative to control; assay type: functional; settings: PC-3, 48 h, read-out: Activity
NCI-H522 = assay: Growth inhibition of human NCI-H522 cells assessed as cell growth at 0.1 uM incubated for 48 hrs by sulforhodamine B assay relative to control; assay type: functional; settings: NCI-H522, 48 h, read-out: Activity
SK-MEL-28 = assay: Growth inhibition of human SK-MEL-28 cells assessed as cell growth at 1 uM incubated for 48 hrs by sulforhodamine B assay relative to control; assay type: functional; settings: SK-MEL-28, 48 h, read-out: Activity
SN12C [12] = assay: Growth inhibition of human SN12C cells assessed as cell growth at 100 uM incubated for 48 hrs by sulforhodamine B assay relative to control; assay type: functional; settings: read-out: Activity
HepG2 = assay: Cytotoxicity against human HepG2 cells assessed as cell viability after 72 hrs by MTT assay; assay type: functional, cell-based; settings: HepG2, 72 h
LNCaP = assay: Cytotoxicity against human LNCAP cells assessed as cell viability after 72 hrs by MTT assay; assay type: functional, cell-based
SN12C [13] = assay: Growth inhibition of human SN12C cells assessed as cell growth at 0.01 uM incubated for 48 hrs by sulforhodamine B assay relative to control; assay type: functional; settings: read-out: Activity
Albumin [14] = target: T1, Albumin; assay: Binding affinity to Bovine serum albumin assessed as fluorescence quenching at […] by fluorescence spectroscopic assay; assay type: ADME; settings: cattle, isolated protein
SN12C [15] = assay: Growth inhibition of human SN12C cells incubated for 48 hrs by sulforhodamine B assay; assay type: functional
MCF7 = assay: Cytotoxicity against human MCF7 cells assessed as cell viability after 72 hrs by MTT assay; assay type: functional, cell-based; settings: MCF7, 72 h
SN12C [16] = assay: Growth inhibition of human SN12C cells assessed as cell growth at 0.1 uM incubated for 48 hrs by sulforhodamine B assay relative to control; assay type: functional; settings: read-out: Activity
SN12C [17] = assay: Growth inhibition of human SN12C cells assessed as cell growth at 1 uM incubated for 48 hrs by sulforhodamine B assay relative to control; assay type: functional; settings: read-out: Activity
[18] = read-out: LC50 (the source's name)
[19] = read-out: pLC50 (the source's name) (converted)

c1ccc2[nH]c(-c3ccc(-c4nccc5c4[nH]c4ccccc45)cc3)nc2c1 showed a growth at 0.01 µM (ACHN [1]) of 99%, a growth at 0.1 µM (IGROV-1 [2]) of 99% and a growth at 100 µM (IGROV-1 [3]) of 47%. The growth at 100 µM (OVCAR-8 [4]) was 28%, the GI50 (DU-145; read-out: GI50) was 4.02 µM and the CC50 (DU-145; [18]) was 5.74 µM. The GI50 (DU-145; read-out: pGI50 (converted)) was 3.98 µM, the CC50 (DU-145; [19]) was 57.5 µM and the TGI (DU-145) was 16.2 µM. For the same compound, the growth at 0.01 µM (NCI/ADR-RES) was 99%, the growth at 1 µM (OVCAR-8 [5]) was 99% and the GI50 (OVCAR-8 [6]) was 3.31 µM. For the same compound, the CC50 (OVCAR-8 [6]; [18]) was > 1 µM, the CC50 (OVCAR-8 [6]; read-out: pLC50 (converted)) was > 100 µM and the TGI (OVCAR-8 [6]; read-out: pTGI (converted)) was 13.5 µM. For the same compound, the growth at 0.01 µM (T47D) was 88%, the growth at 1 µM (NCI-H322M) was 96% and the growth at 0.1 µM (OVCAR-8 [7]) was 103%. The GI50 (ACHN [8]; read-out: GI50) was 2.05 µM, the CC50 (ACHN [8]; [18]) was 8.46 µM and the TGI (ACHN [8]; read-out: TGI) was 4.17 µM. The GI50 (ACHN [8]; read-out: pGI50 (converted)) was 2.04 µM, the CC50 (ACHN [8]; [19]) was 8.51 µM and the TGI (ACHN [8]; read-out: pTGI (converted)) was 4.17 µM. The growth at 100 µM (A549) was 58%, the growth at 100 µM (BT-549) was 43% and the Activity (Albumin [9]) was “Active”. The growth at 1 µM (TK-10 [10]) was 96%, the growth at 1 µM (HL-60(TB)) was 94% and the growth at 0.01 µM (UACC-62) was 89%. For the same compound, the growth at 0.1 µM (TK-10 [11]) was 94%, the growth at 100 µM (PC-3) was 71% and the growth at 0.1 µM (NCI-H522) was 94%. It also gave a growth at 1 µM (SK-MEL-28) of 102%.

In the case of c1ccc2c3c([nH]c2c1)C(c1ccc(C2NCCc4c2[nH]c2ccccc42)cc1)NCC3 (racemic), the growth at 100 µM (SN12C [12]) is reported as -93%, the IC50 (HepG2) is reported as 4.43 µg/mL (≈ 10.6 µM) and the growth at 0.01 µM (ACHN [1]) is reported as 92%. The growth at 0.1 µM (IGROV-1 [2]) was 92%, the IC50 (LNCaP) was 5.52 µg/mL (≈ 13.2 µM) and the growth at 0.01 µM (SN12C [13]) was 96%. For the same compound, the growth at 100 µM (IGROV-1 [3]) was 89%, the CC50 (DU-145; [18]) was 5.16 µM and the GI50 (DU-145; read-out: pGI50 (converted)) was 0.741 µM. The CC50 (DU-145; [19]) was 5.13 µM, the TGI (DU-145) was 2.14 µM and the Activity (Albumin [14]) was “Dose-dependent effect”. It also gave a GI50 (SN12C [15]; read-out: GI50) of 1.47 µM, a CC50 (SN12C [15]; [18]) of 6.31 µM and a TGI (SN12C [15]; read-out: TGI) of 3.05 µM. It also gave a GI50 (SN12C [15]; read-out: pGI50 (converted)) of 1.48 µM, a CC50 (SN12C [15]; [19]) of 6.31 µM and a TGI (SN12C [15]; read-out: pTGI (converted)) of 3.02 µM. The growth at 0.01 µM (T47D) was 82%, the IC50 (MCF7) was 3.34 µg/mL (≈ 7.98 µM) and the growth at 1 µM (NCI-H322M) was 65%. It also gave a CC50 (ACHN [8]; [18]) of 4.58 µM, a GI50 (ACHN [8]; read-out: pGI50 (converted)) of 0.708 µM and a CC50 (ACHN [8]; [19]) of 4.57 µM. For the same compound, the TGI (ACHN [8]; read-out: pTGI (converted)) was 2 µM, the growth at 100 µM (A549) was 87% and the growth at 100 µM (BT-549) was -90%. The growth at 1 µM (TK-10 [10]) was 97%, the growth at 1 µM (HL-60(TB)) was 57% and the growth at 0.01 µM (UACC-62) was 96%. For the same compound, the growth at 0.1 µM (SN12C [16]) was 95%, the growth at 0.1 µM (TK-10 [11]) was 96% and the growth at 100 µM (PC-3) was -93%. The growth at 0.1 µM (NCI-H522) was 105%, the growth at 1 µM (SN12C [17]) was 77% and the growth at 1 µM (SK-MEL-28) was 91%.
